Assay [1] concerns the target T1, HIV-1 protease (Human immunodeficiency virus type 1 group M subtype B, UniProt P04585). Put plainly: biochemical. To be noted: for inhibition at 0.123 µM: read-out: HIV-1 Protease % Inhib, dose 0.123 uM; for inhibition at 0.37 µM: read-out: HIV-1 Protease % Inhib, dose 0.370 uM; for inhibition at 1.1 µM: read-out: HIV-1 Protease % Inhib, dose 1.100 uM; for inhibition at 3.3 µM: read-out: HIV-1 Protease % Inhib, dose 3.300 uM; for inhibition at 10 µM: read-out: HIV-1 Protease % Inhib, dose 10.000 uM; for inhibition at 30 µM: read-out: HIV-1 Protease % Inhib, dose 30.000 uM. The method, boiled down:
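Percent inhibition derived from fluorescent cleavage product separated by filtration after streptavidin-bead capture of intact biotin/FITC substrate. Reaction: enzyme (10 μl, 0.1 μM stock) with substrate (20 μl, 0.2 μM stock) and compound, 1 h at room temperature in dark, pH 5.5 acetate buffer with 1.0 M NaCl and 0.05% NP-40.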

The target of assay [2] is T1, HIV-1 protease. Briefly: biochemical. To be noted: read-out: HIV-1 FITC KI. The essentials: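 Enzyme (40 nM stock) and substrate (200 μM stock) incubated with inhibitor, 24–48 two-fold serial concentrations, for 90 min at room temperature, then quenched with avidin beads. Nonlinear least-squares analysis gives Ki; a known-Ki inhibitor validates each run.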

Usually Ki stands for the dissociation constant of the complex between target and ligand, obtained from inhibition or displacement. On to `O=C(CO)Nc1cccc(S(=O)(=O)Nc2cccc(C(c3c(O)c4c(oc3=O)CCCCCC4)C3CC3)c2)c1` (stereo not shown) [Example 409, 3-(Hydroxyacetylamino)-N-[3-[cyclopropyl(5,6,7,8,9,10-hexahydro4-hydroxy-2-oxo-2H-cycloocta[b]pyran-3-yl)methyl]phenyl]-benzenesulfonamide], for which, on HIV-1 protease [1], the inhibition at 0.123 µM is 65.1%, the inhibition at 0.37 µM came to 90.5%, the inhibition at 1.1 µM came to 102% and the inhibition at 3.3 µM is 103%. In addition, at HIV-1 protease [1], the inhibition at 10 µM turned out to be 101% and the inhibition at 30 µM amounted to 108%. The Ki on HIV-1 protease [2] was 3.3 nM.
As for `O=c1oc2c(c(O)c1C(c1cccc(NS(=O)(=O)c3cccc(S(=O)(=O)N4CCOCC4)c3)c1)C1CC1)CCCCCC2` (stereo not shown) [Example 411, N-[3-[Cyclopropyl(5,6,7,8,9,10-hexahydro-4-hydroxy-2-oxo-2H-cycloocta[b]pyran-3-yl)-methyl]phenyl]-(3-N-morpholinebenzenesulfonyl)benzenesulfonamide], at HIV-1 protease [1], the inhibition at 0.123 µM worked out at 71.1%, the inhibition at 0.37 µM was 79.4%, the inhibition at 1.1 µM turned out to be 98.5% and the inhibition at 3.3 µM turned out to be 104%. For the same compound, on HIV-1 protease [1], the inhibition at 10 µM came to 107% and the inhibition at 30 µM was 106%. Also, the Ki at HIV-1 protease [2] came to 2.5 nM.
Regarding `O=c1oc2c(c(O)c1C(c1cccc(NS(=O)(=O)c3cccc(S(=O)(=O)NCc4ccccc4)c3)c1)C1CC1)CCCCCC2` (stereo not shown) [Example 412, N-[3-[Cyclopropyl(5,6,7,8,9,10-hexahydro-4-hydroxy-2-oxo-2H-cycloocta[b]pyran-3-yl)-methyl]phenyl]-(3-N-benzylbenzenesulfonyl)benzenesulfonamide], at HIV-1 protease [1], the inhibition at 0.123 µM worked out at 37.8%, the inhibition at 0.37 µM was 69.2%, the inhibition at 1.1 µM was 92% and the inhibition at 3.3 µM amounted to 102%. At HIV-1 protease [1], the inhibition at 10 µM is 99% and the inhibition at 30 µM was found to be 102%. For the same compound, the Ki at HIV-1 protease [2] was determined as 9.2 nM.
For `O=c1oc2c(c(O)c1C(c1cccc(NS(=O)(=O)c3cccc(S(=O)(=O)N(Cc4ccccc4)Cc4ccccc4)c3)c1)C1CC1)CCCCCC2` (stereo not shown) [Example 413, N-[3-[Cyclopropyl(5,6,7,8,9,10-hexahydro-4-hydroxy-2-oxo-2H-cycloocta[b]pyran-3-yl)-methyl]phenyl]-(3-N,N-dibenzylbenzenesulfonyl)benzenesulfonamide], on HIV-1 protease [1], the inhibition at 0.37 µM was 17.4%, the inhibition at 1.1 µM came to 43.1%, the inhibition at 3.3 µM was determined as 77.7% and the inhibition at 10 µM stood at 95.2%. Further, the inhibition at 30 µM on HIV-1 protease [1] amounted to 92.7%. Further, the Ki on HIV-1 protease [2] amounted to 104 nM.
With `COCCOCCOCCOc1ccc(S(=O)(=O)Nc2cccc(C(c3c(O)c4c(oc3=O)CCCCCC4)C3CC3)c2)cc1` (stereo not shown) [Example 415, Benzenesulfonamide, N-[3-[cyclopropyl(5,6,7,8,9,10-hexahydro-4-hydroxy-2-oxo-2H-cycloocta[b]pyran-3-yl)methyl]phenyl]-4-[2-[2-(2-methoxyethoxy)ethoxy]ethoxy]-], on HIV-1 protease [1], the inhibition at 0.123 µM was determined as 126%, the inhibition at 0.37 µM worked out at 121%, the inhibition at 1.1 µM is 128% and the inhibition at 3.3 µM worked out at 124%. On HIV-1 protease [1], the inhibition at 10 µM amounted to 125% and the inhibition at 30 µM was determined as 120%. Also, the Ki on HIV-1 protease [2] turned out to be 2.3 nM.
As to `CC(C)CC(c1cccc(NS(=O)(=O)c2ccc(C#N)cc2)c1)c1c(O)c2c(oc1=O)CCCCCC2` (stereo not shown) [Example 426, Benzenesulfonamide, 4-cyano-N-[3-[1-(5,6,7,8,9,10-hexahydro-4-hydroxy-2-oxo-2H-cycloocta[b]pyran-3-yl)-3-methylbutyl]phenyl]-], on HIV-1 protease [1], the inhibition at 0.123 µM was 102%, the inhibition at 0.37 µM came to 117%, the inhibition at 1.1 µM amounted to 109% and the inhibition at 3.3 µM was 102%. Moreover, on HIV-1 protease [1], the inhibition at 10 µM was found to be 102% and the inhibition at 30 µM turned out to be 106%. Besides, at HIV-1 protease [2], the Ki stood at 1.48 nM.
Take `CC(C)CC(c1cccc(NS(=O)(=O)c2cn(C)cn2)c1)c1c(O)c2c(oc1=O)CCCCCC2` (stereo not shown) [Example 427, 1H-Imidazole-4-sulfonamide, N-[3-[1-(5,6,7,8,9,10-hexahydro-4-hydroxy-2-oxo-2H-cycloocta[b]pyran-3-yl)-3-methylbutyl]phenyl]-1-methyl-]: on HIV-1 protease [1], the inhibition at 0.123 µM amounted to 94.2%, the inhibition at 0.37 µM is 92.8%, the inhibition at 1.1 µM is 91.2% and the inhibition at 3.3 µM stood at 90%. Also, on HIV-1 protease [1], the inhibition at 10 µM was determined as 89.6% and the inhibition at 30 µM was determined as 81.9%. On HIV-1 protease [2], the Ki was determined as 0.65 nM.
`CCCC(c1cccc(NS(=O)(=O)c2cn(C)cn2)c1)c1c(O)c2c(oc1=O)CCCCCC2` (stereo not shown) [Example 431, 1H-imidazole-4-sulfonamide, N-[3-[1-(5,6,7,8,9,10-hexahydro-4-hydroxy-2-oxo-2H-cycloocta[b]pyran-3-yl)butyl]phenyl]-1-methyl-]: at HIV-1 protease [1], the inhibition at 0.123 µM was found to be 109%, the inhibition at 0.37 µM was 109%, the inhibition at 1.1 µM turned out to be 109% and the inhibition at 3.3 µM was found to be 112%. At HIV-1 protease [1], the inhibition at 10 µM stood at 105% and the inhibition at 30 µM worked out at 106%. The Ki on HIV-1 protease [2] worked out at 0.89 nM.
For the compound `CCCC(c1cccc(NS(=O)(=O)c2cccc3cccnc23)c1)c1c(O)c2c(oc1=O)CCCCCC2` (stereo not shown) [Example 432, 8-Quinolinesulfonamide, N-[3-[1-(5,6,7,8,9,10-hexahydro4-hydroxy-2-oxo-2H-cycloocta[b]pyran-3-yl)butyl]phenyl]-], at HIV-1 protease [1], the inhibition at 0.123 µM is 101%, the inhibition at 0.37 µM is 104%, the inhibition at 1.1 µM was 111% and the inhibition at 3.3 µM was 109%. Further, on HIV-1 protease [1], the inhibition at 10 µM is 107% and the inhibition at 30 µM is 98%. Also, at HIV-1 protease [2], the Ki came to 1.65 nM.
For `CCCC(c1cccc(NS(=O)(=O)c2cccnc2)c1)c1c(O)c2c(oc1=O)CCCCCC2` (stereo not shown) [Example 433, 3-Pyridinesulfonamide, N-[3-[1-(5,6,7,8,9,10-hexahydro-4-hydroxy-2-oxo-2H-cycloocta[b]pyran-3-yl)butyl]phenyl]-], on HIV-1 protease [1], the inhibition at 0.123 µM worked out at 103%, the inhibition at 0.37 µM was 109%, the inhibition at 1.1 µM stood at 104% and the inhibition at 3.3 µM came out at 104%. Moreover, on HIV-1 protease [1], the inhibition at 10 µM amounted to 109% and the inhibition at 30 µM worked out at 108%. Moreover, the Ki at HIV-1 protease [2] was determined as 2.24 nM.
As to `O=c1oc2c(c(O)c1C1(c3ccccc3)CCC1)CCCCCC2` [Example 483, 3-(Phenylcyclobutyl)-5,6,7,8,9,10-hexahydro-4-hydroxy-2H-cycloocta[b]pyran-2-one], at HIV-1 protease [1], the inhibition at 0.37 µM is 44.8%, the inhibition at 1.1 µM came to 73.2%, the inhibition at 3.3 µM amounted to 85.2% and the inhibition at 10 µM came out at 69.5%. Besides, the inhibition at 30 µM on HIV-1 protease [1] turned out to be 76.7%. In addition, at HIV-1 protease [2], the inhibitory constant (Ki) worked out at 33 nM.
Take `Nc1cc(NS(=O)(=O)c2ccccc2)cc(C(c2c(O)c3c(oc2=O)CCCCCC3)C2CC2)c1` (stereo not shown) [Example 486]: on HIV-1 protease [1], the inhibition at 0.37 µM came out at 40%, the inhibition at 1.1 µM is 74%, the inhibition at 3.3 µM came out at 97.5% and the inhibition at 10 µM is 126%. For the same compound, the inhibition at 30 µM at HIV-1 protease [1] came to 109%. The Ki at HIV-1 protease [2] turned out to be 55 nM.
“N-[3-[Cyclopropyl(5,6,7,8,9,10-hexahydro-4-hydroxy-2-oxo-2H-cycloocta[b]pyran-3-yl)-methyl]phenyl]-(3-N-ethylbenzenesulfonyl)benzenesulfonamide [Example 414]”: the “HIV-1 Protease % Inhib” value on HIV-1 protease [1] (dose 0.123 uM) came to 62.73%; on HIV-1 protease [1] (dose 0.370 uM), 85.78%; on HIV-1 protease [1] (dose 1.100 uM), 103.16%; on HIV-1 protease [1] (dose 3.300 uM), 105.93%; on HIV-1 protease [1] (dose 10.000 uM), 104.38%; at HIV-1 protease [1] (dose 30.000 uM) it was 109.61%. Also, the Ki at HIV-1 protease [2] worked out at 3.5 nM.

The record behind these values is patent US5686486A, “4-hydroxy-benzopyran-2-ones and 4-hydroxy-cycloalkyl[b]pyran-2-ones useful to treat retroviral infections” (priority 1995, dated 1997).
